Measured values reported in US20180251425A1, “2,3,5 TRISUBSTITUTED PYRROLE DERIVATIVES AS TOPOISOMERASE INHIBITORS AND THERAPEUTIC USES THEREOF” (UNIVERSITY OF MYSORE, priority 2015, published 2018).

Tests used:
[1] = tested on: Molt4; assay: Cytotoxicity (MTT / trypan blue) in Molt4 cells; assay type: cell-based; conditions: Homo sapiens, MOLT-4, read-out: Cytotoxicity IC 50 in μM (Cell lines) Molt4
Procedure: (§1) Human cancer cell lines, K562, MCF7, HeLa and HEK 293T were purchased from National Centre for Cell Science, Pune, India. Cells were grown in RPMI 1640/MEM/DMEM supplemented with 10% heat-inactivated fetal bovine serum (FBS), 100 U/mL of Penicillin, and 100 μg of streptomycin/mL and incubated at 37° C. in a humidified atmosphere containing 5% CO2.
(§2) Nalm6, Molt4 and Reh cells were provided by Dr. Sathees C. Raghavan, Department of Biochemistry, IISc, Bangalore. The cells were grown under the similar culture conditions as mentioned above.
(§3) The human T cell leukemia cell line Molt4, Human acute lymphoblastic leukemia (ALL) cell line Nalm6, Human acute myelocytic leukemia (AML) cell line Reh, chronic myelogenous leukemia (CML) cell line K562, Human breast adenocarcinoma cell lines like MCF7 and human kidney cell line HEK 293T (Human embryonic kidney cell line) were selected for the purpose of preliminary anticancer screening of newly synthesized compounds (ASR1 to ASR15). To check the cytotoxicity, trypan blue dye exclusion assays, MTT assay were employed as described earlier Further, Cell cycle analysis, Mitochondrial membrane potential, Annexin-V FITC staining assay were also performed in order to understand the mode of cell death after treatment with ASR6. Further, ASR6 was also tested for its ability to inhibit topoisomerase I and II activity in vitro.
(§4) Cytotoxic effect of the newly synthesized compounds against leukemic cells was assessed using 3-(4, 5-dimethyl-2-yl02, 5-diphenyl tetrazolium bromide (MTT) assay. After exposure of compound at different concentration (0.01, 0.1, 0.5, 1, 10, 50 and 100 μM) cells were harvested and transferred into 96 well plate, MTT (5 mg/ml) was added and incubate at 37° C. for 4 h and formazan crystals were dissolved by adding solubilizing agent (10% SDS and 50% dimethyl formamide) for 1 h, finally plate was read at 570 nm (Bio-Rad, USA). Results were represented as inhibition of percentage of cell proliferation in bar diagram (n=3) (FIGS. 1 A, C, E and G).
(§5) To determine the growth inhibitory activity of the drug, 0.5×10^5 cell/ml were plated in 24 well (Biofil, USA.) in 1 ml of complete medium and treated with various concentration of the compound to test, cells were stained with 0.4% trypan blue and counted on a hemocytometer after treatment with compounds at 48 and 72 h time point. Results were represented as number of viable cells/ml in bar diagram (FIGS. 1 B, D, F, and H) (n=3).

[2] = tested on: Nalm6; assay: Cytotoxicity (MTT / trypan blue) in Nalm6 cells; assay type: cell-based; conditions: Homo sapiens, NALM-6, read-out: Cytotoxicity IC 50 in μM (Cell lines) Nalm6
Procedure: as §1, §2, §3, §4, §5

[3] = tested on: K562; assay: Cytotoxicity (MTT / trypan blue) in K562 cells; assay type: cell-based; conditions: Homo sapiens, read-out: Cytotoxicity IC 50 in μM (Cell lines) K562
Procedure: as §1, §3, §4, §5

[4] = tested on: Molt4 cells; assay: Cell cycle analysis (propidium iodide, flow cytometry); assay type: cell-based, Human; conditions: Molt4 cells, 0.01, 0.1, 0.25 and 0.5 μM, concentration dependent
Procedure: The DNA content analysis was performed by using Flow cytometer, Molt4 cells seeded (0.5×10^5 cells/ml) in 6 well plate and treated with different concentrations of ASR6 (0.01, 0.1, 0.25 and 0.5 μM) at 37° C. for 48 h. After incubation cells were harvested, processed and fixed in 80% chilled ethanol. Overnight treated with RNase-A (50 μg/ml) incubated at 37° C. Further cells stained with propidium iodide (5 μg/ml) and cell cycle progression was monitored using flow cytometer (FACSVerse™ BD Biosciences, USA). A minimum of 10000 cells were recorded. Results were analyzed using Flowing Software (Version 2.5) and plotted histograms.
In FIG. 2 A, B histograms representing different phases of cell cycle distribution of ASR6 (0.01, 0.1, 0.25 and 0.5 μM for 24 h and 48 h) treated Molt4 cells is shown.

[5] = tested on: Molt4 cells; assay: Mitochondrial membrane potential assay (JC-1); assay type: cell-based, Human; conditions: Molt4 cells, 0.1, 0.25 and 0.5 μM, 48 h
Procedure: Molt4 cells were seeded in 12 well plate (0.5×10^5 cells/ml), treated with different concentration of ASR6 for 48 h, (DMSO treated cells was used as vehicle control), washed with 1× phosphate buffered saline and stained with JC-1 dye (5,5′,6,6′-Tetrachloro-1,1′,3,3′-tetraethylbenzimidazolo carbocyanine iodide (0.5 μg/ml) (Calbiochem, USA) in 1 ml of media, incubated at 37° C. for 30 min. Samples were washed with phosphate buffered saline and finally resuspended the cell pellet in 300 μl of 1× phosphate buffered saline and acquired (FACSVerse™, BD Biosciences, USA) using Cell Quest Pro Software. Minimum of 10,000 cells were acquired per sample and 2, 4-Dinitrophenol (2, 4-DNP) used as positive control. Results were analyzed Flowing Software (Version 2.5) and data were presented.

Compound `CCOC(=O)c1[nH]c(-c2ccc(Cl)cc2)cc1-c1cccnc1` [ASR6, Ethyl 5-(4-chlorophenyl)-3-(pyridin-3-yl)-1H-pyrrole-2-carboxylate] has an IC50 [1] of 0.195 µM, an IC50 [2] of 0.344 µM and an IC50 [3] of 0.512 µM. For the same compound, the “Cell cycle progression at 24 h” value ([4]; 24 h) was “G2/M arrest”, the “Cell cycle progression at 48 h” value ([4]; 48 h) was “SubG1 phase (apoptosis)” and the Mitochondrial membrane potential [5] was “reduction in mitochondrial membrane potential”.
